Experiment [1] addresses T1, Interstitial collagenase (Homo sapiens) (UniProt P03956).
T1 sequence (whole entry): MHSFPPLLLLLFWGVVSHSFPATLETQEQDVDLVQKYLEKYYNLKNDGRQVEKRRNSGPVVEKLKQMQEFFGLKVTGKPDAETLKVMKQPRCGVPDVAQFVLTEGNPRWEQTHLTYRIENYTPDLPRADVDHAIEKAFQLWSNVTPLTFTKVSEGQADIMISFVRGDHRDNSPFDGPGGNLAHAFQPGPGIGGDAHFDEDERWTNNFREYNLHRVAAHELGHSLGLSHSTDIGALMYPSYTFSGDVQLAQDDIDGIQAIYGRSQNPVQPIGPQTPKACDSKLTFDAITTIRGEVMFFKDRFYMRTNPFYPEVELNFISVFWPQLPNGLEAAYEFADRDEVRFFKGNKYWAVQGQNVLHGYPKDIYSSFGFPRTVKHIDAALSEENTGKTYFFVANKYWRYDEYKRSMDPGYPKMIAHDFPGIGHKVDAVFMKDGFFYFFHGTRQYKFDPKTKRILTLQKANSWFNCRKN
The experiment in a line: Inhibition of Matrix metalloprotease-1 at 10 uM.

The target of experiment [2] is T2, Collagenase 3 (Homo sapiens, UniProt P45452). The experiment in a line: Inhibition of Matrix metalloprotease-13.
The target in experiment [3] is Disintegrin and metalloproteinase domain-containing protein 17 (Homo sapiens, UniProt P78536). In words: Inhibition of Tumor necrosis factor alpha converting enzyme.
The test system of experiment [4] is THP-1. The experiment in a line: Inhibition of LPS-stimulated TNF-alpha production in THP-1 cells at a concentration of 3 uM. It counts as functional. The conditions noted are these: Homo sapiens.
In experiment [5] the target is T3, Matrix metalloproteinase-9 (Homo sapiens, UniProt P14780). In words: Inhibition of Matrix metalloprotease-9 activity.
Experiment [6] deals with T2, Collagenase 3. In words: Inhibition of Matrix metalloprotease-13 at 1 uM.
The target of experiment [7] is T3, Matrix metalloproteinase-9. The experiment in a line: Inhibition of Matrix metalloprotease-9 at 1 uM.
For experiment [8], the target named is T2, Collagenase 3. In words: Inhibition of Matrix metalloprotease-13 at 10 uM.
Experiment [9] relates to THP-1. In words: Compound was evaluated for its ability to inhibit […] production using THP-1 cellular assay at a concentration of 1 uM. It counts as functional. The conditions noted are these: Homo sapiens.
Experiment [10] has as its target T2, Collagenase 3. In words: Inhibition of Matrix metalloprotease-13 activity.
A further experiment has as its target T4, Interstitial collagenase (Homo sapiens, UniProt P03956).
T4 sequence (P03956 whole entry): T1 sequence (whole entry)
The experiment in a line: Inhibition of Matrix metalloprotease-1.

Experiment [11] has as its target T3, Matrix metalloproteinase-9. The experiment in a line: Inhibition of Matrix metalloprotease-9 at 10 uM.
The test system of experiment [12] is THP-1. In words: Compound was evaluated for its ability to inhibit LPS-stimulated TNF-alpha production in THP-1 cells at a concentration of 1 uM. It counts as functional. The conditions noted are these: Homo sapiens.

Sequence of Disintegrin and metalloproteinase domain-containing protein 17 (P78536 whole entry, the tested form may be a part): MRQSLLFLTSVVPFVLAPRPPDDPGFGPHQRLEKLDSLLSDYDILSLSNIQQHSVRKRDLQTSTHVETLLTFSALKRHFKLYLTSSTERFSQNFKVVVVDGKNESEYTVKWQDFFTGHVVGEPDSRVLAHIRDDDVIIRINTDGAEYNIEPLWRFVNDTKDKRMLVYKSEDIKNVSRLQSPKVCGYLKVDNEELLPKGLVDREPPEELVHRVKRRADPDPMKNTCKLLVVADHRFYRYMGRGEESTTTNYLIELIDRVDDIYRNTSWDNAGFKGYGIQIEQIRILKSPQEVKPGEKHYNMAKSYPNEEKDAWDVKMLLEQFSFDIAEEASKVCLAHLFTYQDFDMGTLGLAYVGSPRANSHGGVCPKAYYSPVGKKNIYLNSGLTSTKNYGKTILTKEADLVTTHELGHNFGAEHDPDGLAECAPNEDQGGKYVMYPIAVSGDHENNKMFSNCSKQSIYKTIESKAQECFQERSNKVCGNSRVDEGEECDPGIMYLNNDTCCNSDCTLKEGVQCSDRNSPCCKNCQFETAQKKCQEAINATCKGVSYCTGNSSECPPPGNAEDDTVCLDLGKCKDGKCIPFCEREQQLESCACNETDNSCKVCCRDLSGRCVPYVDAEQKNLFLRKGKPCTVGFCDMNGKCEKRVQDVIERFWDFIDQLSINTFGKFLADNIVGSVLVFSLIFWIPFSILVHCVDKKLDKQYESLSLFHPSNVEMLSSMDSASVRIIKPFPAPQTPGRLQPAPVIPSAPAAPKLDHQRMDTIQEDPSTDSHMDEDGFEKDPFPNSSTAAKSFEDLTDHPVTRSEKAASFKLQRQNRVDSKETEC
T3 sequence (P14780 whole entry): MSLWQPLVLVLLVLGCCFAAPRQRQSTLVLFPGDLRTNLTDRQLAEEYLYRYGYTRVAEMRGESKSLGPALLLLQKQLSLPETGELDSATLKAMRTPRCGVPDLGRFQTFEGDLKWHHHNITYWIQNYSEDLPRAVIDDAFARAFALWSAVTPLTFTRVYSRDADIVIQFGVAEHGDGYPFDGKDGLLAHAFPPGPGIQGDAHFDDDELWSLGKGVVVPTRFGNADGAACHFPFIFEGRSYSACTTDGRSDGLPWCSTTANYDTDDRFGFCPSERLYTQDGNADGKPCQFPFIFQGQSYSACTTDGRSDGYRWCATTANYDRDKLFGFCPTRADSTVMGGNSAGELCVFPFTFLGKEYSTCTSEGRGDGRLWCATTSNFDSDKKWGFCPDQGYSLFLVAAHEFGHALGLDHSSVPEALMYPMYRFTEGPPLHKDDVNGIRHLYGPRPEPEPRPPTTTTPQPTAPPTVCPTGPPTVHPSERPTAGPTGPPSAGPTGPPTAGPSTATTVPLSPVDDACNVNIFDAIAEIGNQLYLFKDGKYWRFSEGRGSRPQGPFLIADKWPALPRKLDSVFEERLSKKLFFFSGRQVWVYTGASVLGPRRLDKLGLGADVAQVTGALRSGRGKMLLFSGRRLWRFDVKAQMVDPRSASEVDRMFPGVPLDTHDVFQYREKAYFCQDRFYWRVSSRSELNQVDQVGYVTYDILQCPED

One may read the inhibition as the relative decrease from the control value, in per cent. With `CCN(CC)CC#CCOc1ccc(S(=O)(=O)N(C)c2c(C)cc(Br)cc2C(=O)NO)cc1`, in experiment [1], the inhibition is 21%.

In general, IC50 refers to the concentration that inhibits the measured activity by half. As for `CC#CCOc1ccc(S(=O)(=O)N(C)c2c(C(=O)NO)cc(Br)cc2C2CCN(C)CC2)cc1`, the concentration for half-maximal inhibition (IC50) is 252 nM at Collagenase 3 [2], 25 nM in experiment [3] and 166 nM in experiment [5]. The inhibition at 3 µM in the experiment on THP-1 [4] came out at 94%.

Turning to `Cc1cc(Br)cc(C(=O)NO)c1N(C)S(=O)(=O)c1ccc(OCc2cccnc2)cc1`, the values for the inhibition (at Collagenase 3 [6]; in experiment [1]; in [7]) were 48%, 42% and 28%, respectively. The compound also came in with an IC50 in [3] of 28 nM. Further, the inhibition at 3 µM in the experiment with THP-1 [4] stood at 9%.

Regarding `CC#CCOc1ccc(S(=O)(=O)Nc2c(C)cccc2C(=O)NO)cc1`, the results for the inhibition (in [1]; at Collagenase 3 [8]) were 6% and 42%, respectively. In [3], this compound displayed an IC50 of 84 nM. Moreover, the inhibition at 3 µM in the experiment with THP-1 [4] came to 7%.

In the case of `CC#CCOc1ccc(S(=O)(=O)N(C)c2c(C)cc(Br)cc2C(=O)NO)cc1`, 1 µM produced 59% inhibition in the experiment on THP-1 [9].

Consider `COc1ccc(S(=O)(=O)N(C)c2c(C(=O)NO)cc(Br)cc2C2CCN(C)CC2)cc1`, for which the concentration for half-maximal inhibition (IC50) in [3] was found to be 26 nM; on Collagenase 3 [10], 5 nM; at Interstitial collagenase it was 194 nM; in experiment [5] it was 2 nM. In addition, in the experiment on THP-1 [4], the inhibition at 3 µM came out at 42%.

`CNCC#CCOc1ccc(S(=O)(=O)N(C)c2c(C)cc(Br)cc2C(=O)NO)cc1` displayed an inhibition in [1] of 26%.

Compound `Cc1cc(Br)cc(C(=O)NO)c1N(C)S(=O)(=O)c1ccc(OCC#CCNCCCN(C)C)cc1` registered an inhibition in experiment [1] of 32%.

As for `CC#CCOc1ccc(S(=O)(=O)N(C)c2ccccc2C(=O)NO)cc1`, the inhibition in experiment [1] was determined as 35%; in [11] it was 61%. This compound also gave a half-inhibitory concentration (IC50) in [3] of 27 nM. In addition, in the experiment with THP-1 [4], the inhibition at 3 µM is 32%.

In experiment [1], `CC#CCOc1ccc(S(=O)(=O)N(C)c2c(C)cccc2C(=O)NO)cc1` registered an inhibition of 85%. The IC50 came to 28 nM in experiment [3] and 416 nM at Collagenase 3 [10]. In the experiment with THP-1 [4], this compound returned an inhibition at 3 µM of 55%.

The compound `CCCCOc1ccc(S(=O)(=O)N(C)c2c(C)cc(Br)cc2C(=O)NO)cc1` registered an IC50 in experiment [3] of 67 nM. This compound also showed an inhibition at 3 µM with THP-1 [4] of 0%.

Consider `CC#CCOc1ccc(S(=O)(=O)N(C)c2c(C(=O)NO)cc(-c3ccccc3)cc2C2CCN(C)CC2)cc1`, for which the 50% inhibitory concentration (IC50) was 42 nM in [3], 47 nM against Collagenase 3 [10], 1920 nM against Interstitial collagenase and 28 nM in [5]. Also, 3 µM produced 95% inhibition in the experiment on THP-1 [4].

`Cc1cc(Br)cc(C(=O)NO)c1N(C)S(=O)(=O)c1ccc(OCC#CCO)cc1` gave an inhibition at 1 µM in the experiment with THP-1 [12] of 69%.

Values taken from ChEMBL document CHEMBL1135289, “Anthranilate sulfonamide hydroxamate TACE inhibitors. Part 2: SAR of the acetylenic P1' group” (Bioorg Med Chem Lett, 2002).
